Data as given in ChEMBL document CHEMBL1130161, “Cyclic urea amides: HIV-1 protease inhibitors with low nanomolar potency against both wild type and protease inhibitor resistant mutants of HIV” (J Med Chem, 1997).

Key:
[1] = test system: Human immunodeficiency virus; assay: Resistance of constructed mutant 84V virus was calculated as (IC90 for a mutant virus / IC90 of wt HXB2 virus).; type: functional
[2] = test system: Human immunodeficiency virus; assay: Resistance of constructed mutant […]/47V/50V virus was calculated as (IC90 for a mutant virus / IC90 of wt HXB2 virus).; type: functional
[3] = test system: Human immunodeficiency virus; assay: Resistance of constructed mutant 82A virus was calculated as (IC90 for a mutant virus / IC90 of wt HXB2 virus).; type: functional
[4] = Resistance of constructed mutant 82F virus was calculated as (IC90 for a mutant virus / IC90 of wt HXB2 virus).; type: functional
[5] = test system: Human immunodeficiency virus; assay: Resistance of constructed mutant 48V/90M virus was calculated as (IC90 for a mutant virus / IC90 of wt HXB2 virus); type: functional
[6] = test system: Human immunodeficiency virus; assay: Resistance of constructed mutant MK639 virus was calculated as (IC90 for a mutant virus / IC90 of wt HXB2 virus).; type: functional
[7] = test system: Human immunodeficiency virus; assay: Resistance of constructed mutant ABT538 virus was calculated as (IC90 for a mutant virus / IC90 of wt HXB2 virus); type: functional
[8] = target: Human immunodeficiency virus type 1 protease (Human immunodeficiency virus 1) (UniProt Q72874); assay: Inhibitory concentration against accumulation of viral p24 antigen following infection of MT-4 cells; type: functional, cell-based; conditions: MT4
[9] = target: Human immunodeficiency virus type 1 protease (Human immunodeficiency virus 1, UniProt Q72874); assay: Binding affinity to inhibit the purified wild-type HIV-1 Protease

SMILES	Resistance [1]	Resistance [2]	Resistance [3]	Resistance [4]	Resistance [5]	Resistance [6]	Resistance [7]	IC90 [8]	Ki [9]
CC(C)CN(C[C@@H](O)[C@H](Cc1ccccc1)NC(=O)O[C@H]1CCOC1)S(=O)(=O)c1ccc(N)cc1	1.5	39	2.2	1.9	1.1	3.8	13	81 nM	
O=C(Nc1ncc[nH]1)c1cccc(CN2C(=O)N(Cc3cccc(C(=O)Nc4ncc[nH]4)c3)[C@H](Cc3ccccc3)[C@H](O)[C@@H](O)[C@H]2Cc2ccccc2)c1	0.7	0.4	2.7	1.6	0.1	0.4	0.2	19 nM	
O=C1N(Cc2ccc(CO)cc2)[C@H](Cc2ccccc2)[C@H](O)[C@@H](O)[C@@H](Cc2ccccc2)N1Cc1ccc(CO)cc1 [DMP-323]	22	11	2.8	7.1	0.3	18	93	95 nM	
O=C(Nc1ncc[nH]1)c1cccc(CN2C(=O)N(CC3CC3)[C@H](Cc3ccccc3)[C@H](O)[C@@H](O)[C@H]2Cc2ccccc2)c1						12	83	28 nM	0.016 nM
O=C(Nc1nccs1)c1cccc(CN2C(=O)N(Cc3cccc(C(=O)Nc4nccs4)c3)[C@H](Cc3ccccc3)[C@H](O)[C@@H](O)[C@H]2Cc2ccccc2)c1	1.2	23	2.2	0.9	0.2	8.7	24	4.2 nM	
O=C1N(CC2CC2)[C@H](Cc2ccccc2)[C@H](O)[C@@H](O)[C@@H](Cc2ccccc2)N1CC1CC1	6.6	1.7	1.4	4	1.3	11	7.2	2100 nM	
CC(C)(C)NC(=O)[C@@H]1C[C@@H]2CCCC[C@@H]2CN1C[C@@H](O)[C@H](Cc1ccccc1)NC(=O)[C@H](CC(N)=O)NC(=O)c1ccc2ccccc2n1	0.7		0.9	0.4	20	5.3	0.6	15 nM	
CCCCN1C(=O)N(Cc2cccc(C(=O)Nc3ncc[nH]3)c2)[C@H](Cc2ccccc2)[C@H](O)[C@@H](O)[C@H]1Cc1ccccc1	4.2		1.4	14.5	1	14.5	27	18 nM	0.025 nM
O=C(Nc1nc2ccccc2[nH]1)c1cccc(CN2C(=O)N(Cc3cccc(C(=O)Nc4nc5ccccc5[nH]4)c3)[C@H](Cc3ccccc3)[C@H](O)[C@@H](O)[C@H]2Cc2ccccc2)c1	0.6	1	0.8	0.3	0.3	0.7	1.2	5.1 nM	
O=C(Nc1nc2ccccc2[nH]1)c1cccc(CN2C(=O)N(CC3CC3)[C@H](Cc3ccccc3)[C@H](O)[C@@H](O)[C@H]2Cc2ccccc2)c1	8.4	2.1	1.9	2.1	1.9	26	86	17 nM	0.037 nM
CC(C)[C@H](NC(=O)OCc1ccccc1)C(=O)N[C@@H](Cc1ccccc1)[C@H](O)[C@@H](O)[C@@H](Cc1ccccc1)NC(=O)[C@H](NC(=O)OCc1ccccc1)C(C)C	2.1	6.5	6	1.8	1.3	>150	13	195 nM	0.25 nM
O=C(Nc1ncc[nH]1)c1cccc(CN2C(=O)N(Cc3ccccc3)[C@H](Cc3ccccc3)[C@H](O)[C@@H](O)[C@H]2Cc2ccccc2)c1	2.9		1	0.5	0.6	15	29	21 nM	0.033 nM
O=C(Nc1nccs1)c1cccc(CN2C(=O)N(Cc3ccccc3)[C@H](Cc3ccccc3)[C@H](O)[C@@H](O)[C@H]2Cc2ccccc2)c1	7.2	10.2	4.9	3	1.9	10	31	74 nM	0.074 nM
CC(C)(C)NC(=O)[C@@H]1CN(Cc2cccnc2)CCN1C[C@@H](O)C[C@@H](Cc1ccccc1)C(=O)N[C@H]1c2ccccc2C[C@H]1O.O	0.5	1.8	2.5	2.8	3.6	18	6.5	28 nM	
O=C(Nc1nccs1)c1cccc(CN2C(=O)N(CC3CC3)[C@H](Cc3ccccc3)[C@H](O)[C@@H](O)[C@H]2Cc2ccccc2)c1	6.1	11	1.8	4.1	0.9	18.5	41	40 nM	
Nc1cccc(CN2C(=O)N(Cc3cccc(N)c3)[C@H](Cc3ccccc3)[C@H](O)[C@@H](O)[C@H]2Cc2ccccc2)c1 [MOZENAVIR]	9.9	7.5	2.5	5.3	1.5	27	49	120 nM	0.34 nM
CC(C)c1nc(CN(C)C(=O)N[C@H](C(=O)N[C@@H](Cc2ccccc2)C[C@H](O)[C@H](Cc2ccccc2)NC(=O)OCc2cncs2)C(C)C)cs1 [RITONAVIR]	2.4	6	7.1	8.9	5	5.5	30		
